Experiment: Inhibition of human neutrophil elastase activity assessed as reduction in […]

- IC50: > 10 µM
Compound: COc1cc2c(c3c1CCC(c1ccccc1)O3)C1C3C(c4ccc(O)c(C)c4OC)C(C(O)(OC)c4ccccc4)C14C(C=CC(=O)C4OC)OC3(c1ccccc1)O2 (stereo unspecified)

Source: BindingDB's records for PubMed 32698113 (Sichuan University, 2020)
